# Results published in patent US20190216761A1, “COMPOSITIONS COMPRISING 15-HEPE AND METHODS OF USING THE SAME” (Afimmune Limited, priority 2015, published 2019).
# Changes are numbered by the printed parent chain.
# Assays:
# Assay type in all cases: cell-based
# rPPARγ = molecular target: T1, rPPARγ (Rattus norvegicus, UniProt O88275); test: PPAR antagonist reporter assay (reference agonist at EC80)
# T1 construct: expressed in transfected cells
# T1 sequence (O88275 238-503 limits assumed): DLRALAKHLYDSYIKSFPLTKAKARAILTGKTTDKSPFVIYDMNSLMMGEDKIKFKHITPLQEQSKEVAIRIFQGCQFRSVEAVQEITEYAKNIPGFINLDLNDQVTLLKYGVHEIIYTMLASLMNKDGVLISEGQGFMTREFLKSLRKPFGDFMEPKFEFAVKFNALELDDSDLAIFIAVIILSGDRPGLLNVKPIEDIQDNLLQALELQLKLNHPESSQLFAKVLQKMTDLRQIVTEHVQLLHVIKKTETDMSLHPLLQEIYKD
# Protocol: (§1) This study utilized proprietary reporter cells expressing a hybrid receptor comprising the N-terminal Gal4 DNA binding domain fused to the ligand binding domain of the specific human nuclear receptor (hPPARα, hPPARδ, and hPPARγ) and rat nuclear receptor (rPPARα, rPPARδ, and rPPARγ). The reporter vectors used in this Example comprise the firefly luciferase gene functionally linked to the Gal4 upstream activation sequence.
# (§2) Nuclear Receptor assay was performed by suspending Reporter Cells in CRM containing 10% charcoal stripped FBS. 2×-EC80 concentrations of the appropriate reference agonist were then added to the Reporter Cell suspension, and 100 μL of the mixture dispensed into wells of a white 96-well plate. Test compounds were diluted using compound screening medium (CSM) containing 10% charcoal stripped FBS to generate “2×-concentration” treatment media. Immediately after this dilution step, 100 μL of each diluted 2×-concentration treatment medium was dispensed (in triplicate) into the Reporter Cell-containing assay wells.
# (§3) After incubation at 37° C. for 24 hours, the treatment media was discarded. Each well was rinsed once with LCM Buffer; LCM substrate was then added. After incubation for 30 minutes at 37° C., fluorescence was measured to determine the relative number of live cells per assay well. LCM substrate was then discarded and 100 μL of Luciferase Detection Reagent substrate was added to each well. RLUs were quantified from each well to determine nuclear receptor activities.
# hPPARδ = molecular target: T2, hPPARδ (Homo sapiens, UniProt Q03181); test: as above
# T2 construct: expressed in transfected cells
# T2 sequence (Q03181 211-439 limits assumed): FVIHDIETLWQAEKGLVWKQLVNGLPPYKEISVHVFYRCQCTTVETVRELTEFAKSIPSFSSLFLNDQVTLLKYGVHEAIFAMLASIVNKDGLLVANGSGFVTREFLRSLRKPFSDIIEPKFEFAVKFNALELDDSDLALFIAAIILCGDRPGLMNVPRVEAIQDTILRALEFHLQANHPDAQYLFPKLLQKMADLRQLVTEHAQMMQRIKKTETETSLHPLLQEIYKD
# Protocol: as §1, §2, §3
# rPPARα = molecular target: T3, rPPARα (Rattus norvegicus, UniProt P37230); test: as above
# T3 construct: expressed in transfected cells
# T3 sequence (P37230 239-466 limits assumed): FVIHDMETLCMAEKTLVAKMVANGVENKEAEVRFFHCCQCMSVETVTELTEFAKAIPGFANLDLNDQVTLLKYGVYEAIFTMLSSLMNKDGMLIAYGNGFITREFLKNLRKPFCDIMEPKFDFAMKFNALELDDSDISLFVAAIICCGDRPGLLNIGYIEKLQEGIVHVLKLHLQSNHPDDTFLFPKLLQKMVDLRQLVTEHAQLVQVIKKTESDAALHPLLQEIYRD
# Protocol: as §1, §2, §3
# hPPARα = molecular target: T4, hPPARα (Homo sapiens, UniProt Q07869); test: as above
# T4 construct: expressed in transfected cells
# T4 sequence (Q07869 239-466 limits assumed): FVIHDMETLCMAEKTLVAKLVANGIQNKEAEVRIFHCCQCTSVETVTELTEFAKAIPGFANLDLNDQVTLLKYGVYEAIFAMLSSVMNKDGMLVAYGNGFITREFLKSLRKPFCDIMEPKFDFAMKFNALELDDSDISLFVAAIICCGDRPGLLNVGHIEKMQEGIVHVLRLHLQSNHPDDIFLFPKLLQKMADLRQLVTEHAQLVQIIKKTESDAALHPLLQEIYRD
# Protocol: as §1, §2, §3
# hPPARγ = molecular target: T5, hPPARγ (Homo sapiens, UniProt P37231); test: as above
# T5 construct: expressed in transfected cells
# T5 sequence (P37231 238-503 limits assumed): T1 sequence (O88275 238-503 limits assumed) with N93S, I98V, V226L, H245Q
# Protocol: as §1, §2, §3
# hPPARα Reporter Cells = test: Live cell multiplex assay
# Protocol: as §1, §2, §3
# hPPARδ Reporter Cells = test: Live cell multiplex assay
# Protocol: as §1, §2, §3
compound,measurement,setting,value
"CC/C=C\C[C@H](O)/C=C/C=C\C/C=C\C/C=C\CCCC(=O)OCC [15-HEPE-EE, 15-HEPE ethyl ester]","% Inhibition of agonist-stimulated receptor activity vs. 0.10% DMSO, rPPAR-γ",rPPARγ; 137 nM,10%
same,"% Inhibition of agonist-stimulated receptor activity vs. 0.10% DMSO, rPPAR-γ",rPPARγ; 412 nM,−13%
same,"% Inhibition of agonist-stimulated receptor activity vs. 0.10% DMSO, rPPAR-γ","rPPARγ; 1,235 nM",−7.6%
same,"% Inhibition of agonist-stimulated receptor activity vs. 0.10% DMSO, rPPAR-γ","rPPARγ; 3,704 nM",−6.7%
same,"% Inhibition of agonist-stimulated receptor activity vs. 0.10% DMSO, rPPAR-γ","rPPARγ; 11,111 nM",−4.1%
same,"% Inhibition of agonist-stimulated receptor activity vs. 0.10% DMSO, rPPAR-γ","rPPARγ; 33,333 nM",8.4%
same,"% Inhibition of agonist-stimulated receptor activity vs. 0.10% DMSO, rPPAR-γ","rPPARγ; 100,000 nM",26%
same,"% Inhibition of agonist-stimulated receptor activity vs. 0.10% DMSO, rPPAR-γ","rPPARγ; 300,000 nM",93%
same,"inhibition of rat PPARs (in words), rPPARγ",rPPARγ; at higher test concentrations,apparent inhibition
same,"% Inhibition of agonist-stimulated receptor activity vs. 0.10% DMSO, hPPAR-δ",hPPARδ; 137 nM,0.68%
same,"% Inhibition of agonist-stimulated receptor activity vs. 0.10% DMSO, hPPAR-δ",hPPARδ; 412 nM,−7.7%
same,"% Inhibition of agonist-stimulated receptor activity vs. 0.10% DMSO, hPPAR-δ","hPPARδ; 1,235 nM",−11%
same,"% Inhibition of agonist-stimulated receptor activity vs. 0.10% DMSO, hPPAR-δ","hPPARδ; 3,704 nM",−10%
same,"% Inhibition of agonist-stimulated receptor activity vs. 0.10% DMSO, hPPAR-δ","hPPARδ; 11,111 nM",−10%
same,"% Inhibition of agonist-stimulated receptor activity vs. 0.10% DMSO, hPPAR-δ","hPPARδ; 33,333 nM",1.6%
same,"% Inhibition of agonist-stimulated receptor activity vs. 0.10% DMSO, hPPAR-δ","hPPARδ; 100,000 nM",29%
same,"% Inhibition of agonist-stimulated receptor activity vs. 0.10% DMSO, hPPAR-δ","hPPARδ; 300,000 nM",100%
same,"inhibition of human PPARs (in words), hPPARδ",hPPARδ; at higher test concentrations,apparent inhibition
same,"% Inhibition of agonist-stimulated receptor activity vs. 0.10% DMSO, rPPAR-α",rPPARα; 137 nM,42%
same,"% Inhibition of agonist-stimulated receptor activity vs. 0.10% DMSO, rPPAR-α",rPPARα; 412 nM,26%
same,"% Inhibition of agonist-stimulated receptor activity vs. 0.10% DMSO, rPPAR-α","rPPARα; 1,235 nM",25%
same,"% Inhibition of agonist-stimulated receptor activity vs. 0.10% DMSO, rPPAR-α","rPPARα; 3,704 nM",21%
same,"% Inhibition of agonist-stimulated receptor activity vs. 0.10% DMSO, rPPAR-α","rPPARα; 11,111 nM",21%
same,"% Inhibition of agonist-stimulated receptor activity vs. 0.10% DMSO, rPPAR-α","rPPARα; 33,333 nM",38%
same,"% Inhibition of agonist-stimulated receptor activity vs. 0.10% DMSO, rPPAR-α","rPPARα; 100,000 nM",79%
same,"% Inhibition of agonist-stimulated receptor activity vs. 0.10% DMSO, rPPAR-α","rPPARα; 300,000 nM",100%
same,"inhibition of rat PPARs (in words), rPPARα",rPPARα; at higher test concentrations,apparent inhibition
same,"% Inhibition of agonist-stimulated receptor activity vs. 0.10% DMSO, hPPAR-α",hPPARα; 137 nM,49%
same,"% Inhibition of agonist-stimulated receptor activity vs. 0.10% DMSO, hPPAR-α",hPPARα; 412 nM,21%
same,"% Inhibition of agonist-stimulated receptor activity vs. 0.10% DMSO, hPPAR-α","hPPARα; 1,235 nM",13%
same,"% Inhibition of agonist-stimulated receptor activity vs. 0.10% DMSO, hPPAR-α","hPPARα; 3,704 nM",14%
same,"% Inhibition of agonist-stimulated receptor activity vs. 0.10% DMSO, hPPAR-α","hPPARα; 11,111 nM",14%
same,"% Inhibition of agonist-stimulated receptor activity vs. 0.10% DMSO, hPPAR-α","hPPARα; 33,333 nM",26%
same,"% Inhibition of agonist-stimulated receptor activity vs. 0.10% DMSO, hPPAR-α","hPPARα; 100,000 nM",40%
same,"% Inhibition of agonist-stimulated receptor activity vs. 0.10% DMSO, hPPAR-α","hPPARα; 300,000 nM",83%
same,"inhibition of human PPARs (in words), hPPARα",hPPARα; at higher test concentrations,apparent inhibition
same,"% Inhibition of agonist-stimulated receptor activity vs. 0.10% DMSO, hPPAR-γ",hPPARγ; 137 nM,17%
same,"% Inhibition of agonist-stimulated receptor activity vs. 0.10% DMSO, hPPAR-γ",hPPARγ; 412 nM,0.87%
same,"% Inhibition of agonist-stimulated receptor activity vs. 0.10% DMSO, hPPAR-γ","hPPARγ; 1,235 nM",−1.4%
same,"% Inhibition of agonist-stimulated receptor activity vs. 0.10% DMSO, hPPAR-γ","hPPARγ; 3,704 nM",−4.6%
same,"% Inhibition of agonist-stimulated receptor activity vs. 0.10% DMSO, hPPAR-γ","hPPARγ; 11,111 nM",−0.42%
same,"% Inhibition of agonist-stimulated receptor activity vs. 0.10% DMSO, hPPAR-γ","hPPARγ; 33,333 nM",5.2%
same,"% Inhibition of agonist-stimulated receptor activity vs. 0.10% DMSO, hPPAR-γ","hPPARγ; 100,000 nM",44%
same,"% Inhibition of agonist-stimulated receptor activity vs. 0.10% DMSO, hPPAR-γ","hPPARγ; 300,000 nM",100%
same,"inhibition of human PPARs (in words), hPPARγ",hPPARγ; at higher test concentrations,apparent inhibition
same,"% Live cells vs. 0.10% DMSO, hPPAR-α",hPPARα Reporter Cells; 137 nM,96%
same,"% Live cells vs. 0.10% DMSO, hPPAR-α",hPPARα Reporter Cells; 412 nM,94%
same,"% Live cells vs. 0.10% DMSO, hPPAR-α","hPPARα Reporter Cells; 1,235 nM",119%
same,"% Live cells vs. 0.10% DMSO, hPPAR-α","hPPARα Reporter Cells; 3,704 nM",120%
same,"% Live cells vs. 0.10% DMSO, hPPAR-α","hPPARα Reporter Cells; 11,111 nM",117%
same,"% Live cells vs. 0.10% DMSO, hPPAR-α","hPPARα Reporter Cells; 33,333 nM",115%
same,"% Live cells vs. 0.10% DMSO, hPPAR-α","hPPARα Reporter Cells; 100,000 nM",69%
same,"% Live cells vs. 0.10% DMSO, hPPAR-α","hPPARα Reporter Cells; 300,000 nM",35%
same,"% Live cells vs. 0.10% DMSO, hPPAR-δ",hPPARδ Reporter Cells; 137 nM,95%
same,"% Live cells vs. 0.10% DMSO, hPPAR-δ",hPPARδ Reporter Cells; 412 nM,98%
same,"% Live cells vs. 0.10% DMSO, hPPAR-δ","hPPARδ Reporter Cells; 1,235 nM",99%
same,"% Live cells vs. 0.10% DMSO, hPPAR-δ","hPPARδ Reporter Cells; 3,704 nM",100%
same,"% Live cells vs. 0.10% DMSO, hPPAR-δ","hPPARδ Reporter Cells; 11,111 nM",101%
same,"% Live cells vs. 0.10% DMSO, hPPAR-δ","hPPARδ Reporter Cells; 33,333 nM",101%
same,"% Live cells vs. 0.10% DMSO, hPPAR-δ","hPPARδ Reporter Cells; 100,000 nM",101%
same,"% Live cells vs. 0.10% DMSO, hPPAR-δ","hPPARδ Reporter Cells; 300,000 nM",7.7%
